We go through one compound from US9775904B2 (priority 2014, dated 2017).

Usually EC50 stands for the concentration needed to bring the measured effect to its halfway point. The term Cmax denotes the peak of the concentration-time curve. The half-life is how long it takes for the measured level to halve. A low value points to rapid decline.

For series [1], the target named is T1, human GLP-1 receptor (hGLP-1 R) (Homo sapiens, UniProt P43220).
T1 construct: expressed in transfected cells
The experiment in a line: cAMP response of HEK-293 cells expressing human GLP-1 receptor (HTRF). The class given is cell-based. As to conditions: Table 6. Here is the method: (§1) cAMP content of cells was determined using a kit from Cisbio Corp. (cat. no. 62AM4PEC) based on HTRF (Homogenous Time Resolved Fluorescence). For preparation, cells were split into T175 culture flasks and grown overnight to near confluency in medium (DMEM/10% FBS). Medium was then removed and cells washed with PBS lacking calcium and magnesium, followed by proteinase treatment with accutase (Sigma-Aldrich cat. no. A6964). Detached cells were washed and resuspended in assay buffer (1×HBSS; 20 mM HEPES, 0.1% BSA, 2 mM IBMX) and cellular density determined. They were then diluted to 400000 cells/ml and 25 μl-aliquots dispensed into the wells of 96-well plates. For measurement, 25 μl of test compound in assay buffer was added to the wells, followed by incubation for 30 minutes at room temperature.
On the technique in general: TR-FRET usually uses a lanthanide donor and a delayed reading to cut background.

A short description of series [2]: Pharmacokinetic testing in mice, s.c. The class given is in vivo. The note with it: mouse, plasma, sc, 1 mg/kg s.c. As to the method: Mice were dosed 1 mg/kg subcutaneously (s.c.). The mice were sacrified and blood samples were collected after 0.25, 0.5, 1, 2, 4, 8, 16 and 24 hours post application. Plasma samples were analyzed after protein precipitation via liquid chromatography mass spectrometry (LC/MS). PK parameters and half-life were calculated using WinonLin Version 5.2.1 (non-compartment model).

Series [3] addresses T2, human GIP receptor (hGIP-R) (Homo sapiens, UniProt P48546).
T2 construct: expressed in transfected cells
T2 sequence (P48546 22-466): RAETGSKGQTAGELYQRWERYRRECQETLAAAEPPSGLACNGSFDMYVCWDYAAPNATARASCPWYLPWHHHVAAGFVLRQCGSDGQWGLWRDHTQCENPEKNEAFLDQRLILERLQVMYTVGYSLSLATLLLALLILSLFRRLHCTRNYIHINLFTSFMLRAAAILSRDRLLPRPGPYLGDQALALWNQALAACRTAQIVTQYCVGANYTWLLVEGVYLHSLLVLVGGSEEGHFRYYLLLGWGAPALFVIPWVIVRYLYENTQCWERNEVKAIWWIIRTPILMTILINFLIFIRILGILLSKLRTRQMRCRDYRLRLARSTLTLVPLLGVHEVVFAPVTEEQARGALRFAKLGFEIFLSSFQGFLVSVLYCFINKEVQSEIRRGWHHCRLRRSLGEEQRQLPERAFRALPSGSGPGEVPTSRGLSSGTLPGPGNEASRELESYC
The experiment in a line: cAMP response of HEK-293 cells expressing human GIP receptor (HTRF). The note with it: Table 6; read-out: EC50 hGIP-R. The class given is cell-based. Here is the method: as §1

Series [4] in a line: Solubility testing in buffer (HPLC-UV). The class given is physicochemical. As to the method:
Prior to the testing of solubility and stability of a peptide batch, its purity (HPLC-UV) was determined.
. Therefore, solutions from solid samples were prepared in different buffer systems with a concentration of 10 mg/mL compound based on the previously determined % purity. HPLC-UV was performed after 2 h of gentle agitation from the supernatant, which was obtained by 20 min of centrifugation at 4500 rpm.
[…]. This analysis also served as starting point (t0) for the stability testing.

Series [5] is described as follows: Chronic effect on body weight and body fat in female DIO C57BL/6 mice, 4 weeks. The class given is in vivo. The note with it: 50 μg/kg bid s.c. Here is the method:
(§2) C57BL/6 Harlan mice are housed in groups in a specific pathogen-free barrier facility on a 12 h light/dark cycle with free access to water and standard or high-fat diet. After prefeeding on high-fat diet, mice are stratified to treatment groups (n=8), so that each group has similar mean body weight. An age-matched group with ad-libitum access to standard chow is included as standard control group. Before the experiment, mice are subcutaneously (s.c.) injected with vehicle solution and weighed for 3 days to acclimate them to the procedures.
2) Chronic effect on body weight in female DIO mice: mice are treated once (s.c. in evening hours) or twice daily (s.c. in the morning and in the evening), respectively, at the beginning and the end of the light phase with either vehicle or exendin-4 derivatives for 4 weeks. Body weight is recorded daily. Two days before start of treatment and on day 26, total fat mass is measured by nuclear magnetic resonance (NMR).
(§3) Statistical analyses are performed with Everstat 6.0 by repeated measures two-way ANOVA and Dunnetts post-hoc analyses (glucose profile) and 1-way-ANOVA, followed by Dunnetts post-hoc test (body weight, body fat). Differences versus vehicle-treated DIO control mice are considered statistically significant at the p<0.05 level.
Body weight was recorded daily, and body fat content was determined before the start and after 4 weeks of treatment. […] These changes resulted from a decrease in body fat, as shown by the absolute changes in body fat content (Table 10, FIG. 3).
Body weight was recorded daily, and body fat content was determined before the start and after 4 weeks of treatment.

In series [6] the target is T3, human glucagon receptor (hGlucagon R) (Homo sapiens, UniProt P47871).
T3 construct: expressed in transfected cells
The experiment in a line: cAMP response of HEK-293 cells expressing human glucagon receptor (HTRF). It is filed as cell-based. As to conditions: Table 6. Here is the method:
as §1

The nature of series [7]: Pharmacokinetic testing in Göttinger minipigs, s.c. It is filed as in vivo. As to conditions: female, minipig, plasma, sc, Mini pigs, 0.1 mg/kg s.c. Here is the method: Female Göttinger minipigs were dosed 0.1 mg/kg subcutaneously (s.c.). Blood samples were collected after 0.25, 0.5, 1, 2, 4, 8, 24, 32, 48, 56 and 72 hours post application. Plasma samples were analyzed after protein precipitation via liquid chromatography mass spectrometry (LC/MS). PK parameters and half-life were calculated using WinonLin Version 5.2.1 (non-compartment model).

The nature of series [8]: Acute effect on blood glucose in fed female DIO C57BL/6 mice. It is filed as in vivo. The note with it: 50 μg/kg s.c.; t=1, 2, 3, 4, 6 and 24 h post dosing; p<0.0001. Here is the method: as §2
1) Acute effect on blood glucose in fed female DIO mice: initial blood samples are taken just before first administration (s.c.) of vehicle (phosphate buffer solution) or the exendin-4 derivatives (dissolved in phosphate buffer), respectively. The volume of administration is 5 mL/kg. The animals have access to water and their corresponding diet during the experiment. Blood glucose levels are measured at t=0 h, t=1 h, t=2 h, t=3 h, t=4 h, t=6 h and t=24 h (method: Accu-Check glucometer). Blood sampling is performed by tail incision without anaesthesia.
as §3
At predefined time points, more blood samples were taken to measure blood glucose and generate the blood glucose profile over 24 h.

Like-named read-outs stand apart in the source and are kept apart here.

T3 sequence (P47871 26-477): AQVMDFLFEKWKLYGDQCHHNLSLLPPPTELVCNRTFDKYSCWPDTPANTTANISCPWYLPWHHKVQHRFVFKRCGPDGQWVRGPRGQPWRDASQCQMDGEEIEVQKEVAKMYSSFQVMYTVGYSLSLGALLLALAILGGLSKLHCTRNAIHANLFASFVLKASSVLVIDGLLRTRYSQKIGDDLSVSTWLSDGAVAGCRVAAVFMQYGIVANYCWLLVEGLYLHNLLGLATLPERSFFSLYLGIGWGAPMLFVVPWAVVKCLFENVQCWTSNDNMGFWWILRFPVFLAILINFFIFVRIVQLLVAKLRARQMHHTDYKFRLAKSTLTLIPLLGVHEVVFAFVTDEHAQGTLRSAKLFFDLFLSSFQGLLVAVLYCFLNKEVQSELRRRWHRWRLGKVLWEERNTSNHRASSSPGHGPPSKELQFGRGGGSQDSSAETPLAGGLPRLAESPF
T1 sequence (P43220 24-463): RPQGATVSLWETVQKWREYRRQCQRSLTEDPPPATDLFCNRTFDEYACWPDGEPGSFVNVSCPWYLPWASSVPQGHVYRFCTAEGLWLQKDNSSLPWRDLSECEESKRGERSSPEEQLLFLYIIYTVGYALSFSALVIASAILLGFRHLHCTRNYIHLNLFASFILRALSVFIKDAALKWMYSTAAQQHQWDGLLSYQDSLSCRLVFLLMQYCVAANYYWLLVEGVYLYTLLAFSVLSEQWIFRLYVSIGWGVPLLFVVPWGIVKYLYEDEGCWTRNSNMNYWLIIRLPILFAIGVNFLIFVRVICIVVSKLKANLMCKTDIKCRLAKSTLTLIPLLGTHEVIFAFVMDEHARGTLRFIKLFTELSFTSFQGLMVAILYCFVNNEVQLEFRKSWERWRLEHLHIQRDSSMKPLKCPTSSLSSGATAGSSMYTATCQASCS

Consider `CCCCCCCCCCCCCCCC(=O)N[C@@H](CCC(=O)N[C@@H](CCC(=O)NCCCC[C@H](NC(=O)[C@H](CCC(N)=O)NC(=O)[C@H](CCCCN)NC(=O)[C@H](CO)NC(=O)[C@H](CC(C)C)NC(=O)[C@H](CC(=O)O)NC(=O)[C@H](CO)NC(=O)[C@@H](NC(=O)[C@H](Cc1ccccc1)NC(=O)[C@@H](NC(=O)CNC(=O)[C@H](CCC(N)=O)NC(=O)C(C)(C)NC(=O)[C@@H](N)Cc1c[nH]cn1)[C@@H](C)O)[C@@H](C)O)C(=O)N[C@@H](CC(=O)O)C(=O)N[C@@H](CCC(=O)O)C(=O)N[C@@H](CCC(N)=O)C(=O)N[C@@H](CCCNC(=N)N)C(=O)N[C@@H](C)C(=O)N[C@@H](CCCCN)C(=O)N[C@@H](CC(C)C)C(=O)N[C@@H](Cc1ccccc1)C(=O)N[C@H](C(=O)N[C@@H](CCC(=O)O)C(=O)N[C@@H](Cc1c[nH]c2ccccc12)C(=O)N[C@@H](CC(C)C)C(=O)NC(C)(C)C(=O)N[C@@H](C)C(=O)NCC(=O)NCC(=O)N1CCC[C@H]1C(=O)N[C@@H](CO)C(=O)N[C@@H](CO)C(=O)NCC(=O)N[C@@H](C)C(=O)N1CCC[C@H]1C(=O)N1CCC[C@H]1C(=O)N1CCC[C@H]1C(=O)N[C@@H](CO)C(N)=O)[C@@H](C)CC)C(=O)O)C(=O)O` [SEQ ID NO: 8, H-Aib-Q-G-T-F-T-S-D-L-S-K-Q-K(γE-γE-x53)-D-E-Q-R-A-K-L-F-I-E-W-L-Aib-A-G-G-P-S-S-G-A-P-P-P-S-NH2], for which the EC50 amounted to 2.3 pM in series [1], 2140 pM in series [3] and 28.1 pM in series [6]. In addition, the maximum concentration (Cmax) was determined as 4360 ng/mL in series [2] and 476 ng/mL in series [7]. The half-life in series [2] was 3.8 h; in series [7], 18.1 h. In addition, the solubility at 2 h in series [4] (pH 4.5, target concentration 10 mg/ml, read-out: solubility [mg/ml] pH 4.5) is over 8 mg/mL; in series [4] (pH 7.4, target concentration 10 mg/ml, read-out: solubility [mg/ml] pH 7.4) it was over 8 mg/mL. Also, in series [5] (4 weeks, continuing through the end of the study), the “Day on which significant body weight decrease begins” value came out at 5 days. Besides, in series [5] (4 weeks, p>0.0001 by the end of the study (so in the source)), the “Daily body weight compared to vehicle DIO control mice” value is “reduced body weight significantly”. Also, in series [5] (DIO mice, 4-week treatment, NMR, mean ± SEM), the “Body fat change” value was -3.81 ± 0.6 g. Besides, the “Overall weight change” value in series [5] (DIO mice, 4-week treatment, mean ± SEM) is -5.38 ± 0.5 g. Besides, the “Blood glucose compared to DIO control mice” value in series [8] is on record as “significant decrease in blood glucose”.
